Source: patent US8148391B2 (Cephalon, Inc., priority 2006, dated 2012)

Legend:
[1] = molecular target: T1, c-Met (cytoplasmic domain) (Homo sapiens, UniProt P08581); test: c-Met Kinase Assay (same methods as for ALK, with modifications); assay type: biochemical; settings: c-Met kinase inhibition, 1 μM ATP; read-out: cMet Activity
T1 construct: 10 ng/mL c-Met (cytoplasmic domain, Invitrogen Corporation #PV3143); purchased Invitrogen Corporation PV3143
Summary of the method: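 Plates were coated with phospholipase C-γ substrate (10 μg/mL) in TBS, and the reaction was started with 10 ng/mL c-Met cytoplasmic domain and run 15 min at 37 °C. Phosphoproduct was detected with Eu-N1-labelled PT66 antibody. IC50 came from a variable-slope sigmoidal fit of percent inhibition vs log concentration.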

[2] = molecular target: T2, baculovirus-expressed ALK (Homo sapiens, UniProt Q9UM73); test: ALK Kinase Assay (ELISA-type, time-resolved fluorescence); assay type: biochemical; settings: ALK kinase inhibition, 1 μM ATP; read-out: ALK Activity
T2 construct: host or cells: baculovirus expression system
T2 sequence (Q9UM73 19-1620): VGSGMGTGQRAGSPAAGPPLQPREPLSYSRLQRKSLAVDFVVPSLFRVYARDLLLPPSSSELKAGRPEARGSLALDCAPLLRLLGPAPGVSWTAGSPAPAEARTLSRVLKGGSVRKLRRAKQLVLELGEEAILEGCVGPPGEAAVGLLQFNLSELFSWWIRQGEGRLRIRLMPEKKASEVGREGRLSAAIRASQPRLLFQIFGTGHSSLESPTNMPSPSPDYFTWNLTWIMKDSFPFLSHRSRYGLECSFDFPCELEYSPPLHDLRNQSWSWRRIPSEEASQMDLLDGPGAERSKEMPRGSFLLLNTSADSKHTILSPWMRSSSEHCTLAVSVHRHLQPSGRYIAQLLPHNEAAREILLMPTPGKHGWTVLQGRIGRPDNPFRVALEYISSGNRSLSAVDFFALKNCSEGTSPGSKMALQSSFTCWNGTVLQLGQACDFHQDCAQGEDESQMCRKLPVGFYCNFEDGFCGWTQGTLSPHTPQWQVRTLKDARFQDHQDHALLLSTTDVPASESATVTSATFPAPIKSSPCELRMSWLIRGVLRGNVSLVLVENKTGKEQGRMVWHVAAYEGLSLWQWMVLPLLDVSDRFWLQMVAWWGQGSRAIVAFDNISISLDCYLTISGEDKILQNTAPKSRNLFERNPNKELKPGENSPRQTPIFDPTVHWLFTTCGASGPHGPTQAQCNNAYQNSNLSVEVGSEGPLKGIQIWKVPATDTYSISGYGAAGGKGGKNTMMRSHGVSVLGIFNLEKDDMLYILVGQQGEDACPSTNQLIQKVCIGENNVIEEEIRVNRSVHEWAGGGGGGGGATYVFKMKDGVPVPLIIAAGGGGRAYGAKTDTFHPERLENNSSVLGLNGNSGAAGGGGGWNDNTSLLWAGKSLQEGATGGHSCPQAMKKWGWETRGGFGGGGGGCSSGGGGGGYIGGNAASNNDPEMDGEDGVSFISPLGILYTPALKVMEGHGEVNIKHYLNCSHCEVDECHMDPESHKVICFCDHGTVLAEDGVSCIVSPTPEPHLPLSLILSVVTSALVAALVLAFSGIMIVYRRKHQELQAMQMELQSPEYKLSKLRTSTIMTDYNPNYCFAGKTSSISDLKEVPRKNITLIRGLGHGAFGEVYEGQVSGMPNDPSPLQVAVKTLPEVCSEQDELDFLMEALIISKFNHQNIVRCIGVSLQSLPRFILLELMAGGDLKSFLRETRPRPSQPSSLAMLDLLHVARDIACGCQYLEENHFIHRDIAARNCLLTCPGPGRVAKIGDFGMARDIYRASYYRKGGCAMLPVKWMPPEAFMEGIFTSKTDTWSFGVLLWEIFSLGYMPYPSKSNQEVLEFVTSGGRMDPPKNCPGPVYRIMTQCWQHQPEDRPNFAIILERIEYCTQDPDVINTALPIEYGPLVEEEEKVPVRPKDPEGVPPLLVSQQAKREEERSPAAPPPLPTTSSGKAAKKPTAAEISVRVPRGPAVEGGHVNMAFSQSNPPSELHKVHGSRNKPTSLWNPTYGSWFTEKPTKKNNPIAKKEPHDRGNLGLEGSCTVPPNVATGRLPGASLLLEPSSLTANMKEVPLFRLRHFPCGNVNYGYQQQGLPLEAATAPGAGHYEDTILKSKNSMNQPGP
Summary of the method: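 Plates coated with phospholipase C-γ substrate (10 μg/mL in TBS); reaction started with 30 ng/ml ALK and run 15 min at 37° C. Phosphorylated substrate detected with Eu-N1-labeled PT66 antibody. IC50 from sigmoidal variable-slope fit of percent inhibition vs log concentration.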

T1 sequence (P08581 956-1390 limits assumed): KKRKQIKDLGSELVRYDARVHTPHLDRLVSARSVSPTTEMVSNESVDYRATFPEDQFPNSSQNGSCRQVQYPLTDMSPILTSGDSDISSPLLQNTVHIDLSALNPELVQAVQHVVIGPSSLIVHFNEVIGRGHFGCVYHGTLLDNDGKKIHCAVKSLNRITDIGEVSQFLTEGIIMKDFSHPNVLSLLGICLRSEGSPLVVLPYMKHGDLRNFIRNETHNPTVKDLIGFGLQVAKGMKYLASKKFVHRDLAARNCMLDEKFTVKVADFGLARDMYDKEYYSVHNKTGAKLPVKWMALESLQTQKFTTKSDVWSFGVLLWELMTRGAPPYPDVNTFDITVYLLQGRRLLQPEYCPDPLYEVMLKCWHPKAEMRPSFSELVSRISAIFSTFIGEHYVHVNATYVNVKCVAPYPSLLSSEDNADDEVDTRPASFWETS

SMILES	IC50 [1]	IC50 [2]
CNC(=O)c1cccc(F)c1Nc1nc(Nc2ccc3c(c2)N(CCN2CCCC2)CCCC3(C)C)ncc1Cl [Example 1605, 2-{5-Chloro-2-[5,5-dimethyl-1-(2-pyrrolidin-1-yl-ethyl)-2,3,4,5-tetrahydro-1H-benzo[b]azepin-8-ylamino]-pyrimidin-4-ylamino}-3-fluoro-N-methyl-benzamide]	100 to 1000 nM	< 100 nM
CC1(C)CCCN(CCN2CCCC2)c2cc(Nc3ncc(Cl)c(N[C@H]4[C@@H](C(N)=O)[C@@H]5C=C[C@H]4C5)n3)ccc21 [Example 1606, (1S,2S,3R,4R)-3-{5-Chloro-2-[5,5-dimethyl-1-(2-pyrrolidin-1-yl-ethyl)-2,3,4,5-tetrahydro-1H-benzo[b]azepin-8-ylamino]-pyrimidin-4-ylamino}-bicyclo[2.2.1]hept-5-ene-2-carboxylic acid amide]	1000 to 10000 nM	< 100 nM
CC1(C)CCCN(C(=O)CN2CCCC2)c2cc(Nc3ncc(Cl)c(N[C@H]4[C@@H](C(N)=O)[C@@H]5C=C[C@H]4C5)n3)ccc21 [Example 1607, (1S,2S,3R,4R)-3-{5-Chloro-2-[5,5-dimethyl-1-(2-pyrrolidin-1-yl-acetyl)-2,3,4,5-tetrahydro-1H-benzo[b]azepin-8-ylamino]-pyrimidin-4-ylamino}-bicyclo[2.2.1]hept-5-ene-2-carboxylic acid amide]	100 to 1000 nM	< 100 nM
CNC(=O)c1cc(F)cc(F)c1Nc1nc(Nc2ccc3c(c2)N(C(C)=O)CCCC3(C)C)ncc1Cl [Example 1608, 2-[2-(1-Acetyl-5,5-dimethyl-2,3,4,5-tetrahydro-1H-benzo[b]azepin-8-ylamino)-5-chloro-pyrimidin-4-ylamino]-3,5-difluoro-N-methyl-benzamide]	< 100 nM	100 to 1000 nM
C#CCNC(=O)c1cccc(F)c1Nc1nc(Nc2ccc3c(c2)N(CCN2CCCC2)CCCC3(C)C)ncc1Cl [Example 1609, 2-{5-Chloro-2-[5,5-dimethyl-1-(2-pyrrolidin-1-yl-ethyl)-2,3,4,5-tetrahydro-1H-benzo[b]azepin-8-ylamino]-pyrimidin-4-ylamino}-3-fluoro-N-prop-2-ynyl-benzamide]	100 to 1000 nM	< 100 nM
COc1cc(N2CCOCC2)ccc1Nc1nc(Nc2ccc3c(c2)N(CCN2CCCC2)CCCC3(C)C)ncc1Cl [Example 1610, 5-Chloro-N*2*-[5,5-dimethyl-1-(2-pyrrolidin-1-yl-ethyl)-2,3,4,5-tetrahydro-1H-benzo[b]azepin-8-yl]-N*4*-(2-methoxy-4-morpholin-4-yl-phenyl)-pyrimidine-2,4-diamine]	1000 to 10000 nM	< 100 nM
CNC(=O)c1cccc(F)c1Nc1nc(Nc2ccc3c(c2)NCCCC3(C)C)ncc1Cl [Example 1611, 2-[5-Chloro-2-(5,5-dimethyl-2,3,4,5-tetrahydro-1H-benzo[b]azepin-8-ylamino)-pyrimidin-4-ylamino]-3-fluoro-N-methyl-benzamide]	< 100 nM	100 to 1000 nM
C#CCNC(=O)c1cccc(F)c1Nc1nc(Nc2ccc3c(c2)NCCCC3(C)C)ncc1Cl [Example 1612, 2-[5-Chloro-2-(5,5-dimethyl-2,3,4,5-tetrahydro-1H-benzo[b]azepin-8-ylamino)-pyrimidin-4-ylamino]-3-fluoro-N-prop-2-ynyl-benzamide]	100 to 1000 nM	100 to 1000 nM
CC1(C)CCCNc2cc(Nc3ncc(Cl)c(N[C@H]4[C@@H](C(N)=O)[C@@H]5C=C[C@H]4C5)n3)ccc21 [Example 1613, (1S,2S,3R,4R)-3-[5-Chloro-2-(5,5-dimethyl-2,3,4,5-tetrahydro-1H-benzo[b]azepin-8-ylamino)-pyrimidin-4-ylamino]-bicyclo[2.2.1]hept-5-ene-2-carboxylic acid amide]	100 to 1000 nM	< 100 nM
COc1cc(N2CCOCC2)ccc1Nc1nc(Nc2ccc3c(c2)NCCCC3(C)C)ncc1Cl [Example 1614, 5-Chloro-N*2*-(5,5-dimethyl-2,3,4,5-tetrahydro-1H-benzo[b]azepin-8-yl)-N*4*-(2-methoxy-4-morpholin-4-yl-phenyl)-pyrimidine-2,4-diamine]	> 10000 nM	100 to 1000 nM
